Reference: article PMC8125440, “A Novel N-Tert-Butyl Derivatives of Pseudothiohydantoin as Potential Target in Anti-Cancer Therapy” (Molecules, 2021)

Experiments:
[1] = molecular target: T1, 11β-hydroxysteroid dehydrogenase type 2 (11β-HSD2) (Homo sapiens, UniProt P80365); assay: cortisol to cortisone conversion in human kidney microsomes, cortisol ELISA; format: cell-based
T1 construct: gene HSD11B2
T1 sequence (P80365 1-405): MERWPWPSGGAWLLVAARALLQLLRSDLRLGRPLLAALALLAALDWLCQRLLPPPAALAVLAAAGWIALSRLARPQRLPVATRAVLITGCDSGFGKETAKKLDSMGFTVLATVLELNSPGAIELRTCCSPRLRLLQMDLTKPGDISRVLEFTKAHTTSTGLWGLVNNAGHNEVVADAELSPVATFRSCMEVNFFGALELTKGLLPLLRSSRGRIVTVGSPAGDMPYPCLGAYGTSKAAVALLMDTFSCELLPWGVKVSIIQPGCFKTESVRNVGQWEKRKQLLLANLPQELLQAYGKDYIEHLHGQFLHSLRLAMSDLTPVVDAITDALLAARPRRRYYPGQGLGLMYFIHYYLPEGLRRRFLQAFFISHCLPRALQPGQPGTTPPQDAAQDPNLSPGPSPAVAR

[2] = molecular target: T2, 11β-hydroxysteroid dehydrogenase type 1 (11β-HSD1) (Homo sapiens, UniProt P28845); assay: cortisone to cortisol conversion in pooled human liver microsomes, cortisol ELISA; format: cell-based
T2 construct: gene HSD11B1
T2 sequence (P28845 whole entry): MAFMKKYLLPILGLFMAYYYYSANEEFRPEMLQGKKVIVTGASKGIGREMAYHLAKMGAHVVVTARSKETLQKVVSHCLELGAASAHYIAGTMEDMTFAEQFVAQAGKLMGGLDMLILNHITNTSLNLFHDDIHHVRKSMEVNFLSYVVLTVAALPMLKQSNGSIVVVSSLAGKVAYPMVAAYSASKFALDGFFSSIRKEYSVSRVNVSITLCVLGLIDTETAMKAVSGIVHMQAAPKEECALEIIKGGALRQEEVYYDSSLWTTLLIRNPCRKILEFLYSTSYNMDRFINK

inhibition at 10 µM [1] | inhibition at 10 µM [2] | SMILES
53.6% |  | CC(C)(C)NC1=NC(=O)C(c2ccccc2)S1 (centres unmarked) [3f, 2-(tert-Butylamino)-5-phenylthiazol-4(5H)-one]
 | 82.5% | CC(C)(C)NC1=NC(=O)C2(CCCCC2)S1 [3h, 2-(tert-Butylamino)-1-thia-3-azaspiro[4.5]dec-2-en-4-one]
